Measurements as given in PubChem BioAssay (NCI).
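96-well plates; 48 h exposure; 5 concentrations. Endpoints by linear interpolation between flanking doses. Not reached: highest tested concentration assigned. Here, GI50 denotes the concentration required for 50% inhibition of growth. Definition used: TGI = concentration required for complete inhibition of growth.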

Experiments:
Test in all cases: NCI-60 cell line screen, 48 h
BT-549 breast = test system: BT-549 breast
CCRF-CEM leukemia = test system: CCRF-CEM leukemia
HCC-2998 colon = test system: HCC-2998 colon
NCI-H226 lung = test system: NCI-H226 lung
PC-3 prostate = test system: PC-3 prostate
SK-MEL-28 melanoma = test system: SK-MEL-28 melanoma
SK-MEL-5 melanoma = test system: SK-MEL-5 melanoma
UACC-62 melanoma = test system: UACC-62 melanoma

Structure (SMILES) | GI50 (BT-549 breast) [µM] | TGI (BT-549 breast) [µM] | GI50 (CCRF-CEM leukemia) [nM] | TGI (CCRF-CEM leukemia) [µM] | GI50 (HCC-2998 colon) [µM] | TGI (HCC-2998 colon) [µM] | GI50 (NCI-H226 lung) [nM] | TGI (NCI-H226 lung) [µM] | GI50 (PC-3 prostate) [nM] | TGI (PC-3 prostate) [µM] | GI50 (SK-MEL-28 melanoma) [µM] | TGI (SK-MEL-28 melanoma) [µM] | GI50 (SK-MEL-5 melanoma) [nM] | TGI (SK-MEL-5 melanoma) [µM] | GI50 (UACC-62 melanoma) [nM] | TGI (UACC-62 melanoma) [µM]
O=C(O)CSc1cc(NS(=O)(=O)c2ccc(Br)cc2)c2ccccc2c1O | 16.2 | 30.5 | 4370 | > 44.8 | 18.4 | 33.9 | 20100 | 44.9 | 5780 | 43.8 | 14.5 | 29 | 14700 | 27.9 | 7810 | 23.4
COc1ccccc1CNCCCN1C(=O)c2ccc3c4c(ccc(c24)C1=O)C(=O)N(CCCNCc1ccccc1OC)C3=O | 0.348 | 0.895 | 194 | 2 | 0.166 | 0.328 | 362 | 1.32 | 214 | 0.608 | 0.436 | 0.876 | 155 | 0.29 | 198 | 0.407
C/C(=C\c1csc(C)n1)[C@@H]1C[C@@H]2O[C@]2(C)CCC[C@H](C)[C@H](O)[C@@H](C)C(=O)C(C)(C)[C@@H](O)CC(=O)N1 | 0.000187 | 0.000416 | 0.125 | 0.000203 | 0.000121 | 0.000243 | 0.388 | 0.000652 | < 0.01 | < 1e-05 | 0.000219 | 0.000436 | 0.137 | 0.000337 | 0.171 | 0.000412
CC(=O)O[C@H]([C@H](OC(C)=O)[C@H](C)OC(C)=O)[C@@H](/C=C/[C@H]1CC=CC(=O)O1)OC(C)=O | 21.9 | 72.6 | 36700 | > 100 | 24.1 | 68.9 | > 100000 | > 100 | 17600 | > 100 | 39.2 | > 100 | 33200 | > 100 | > 100000 | > 100
N#CC1=C(N)Oc2c(ccc3ccccc23)C1c1cc2ccccc2n2nnnc12 (centres undefined) | 1.61 | > 100 | 739 | > 100 | 2.36 | > 100 | 3080 | > 100 | 546 | > 100 | 4.04 | > 100 | 611 | > 100 | 451 | > 100
O=C1NC(c2ccccc2Cl)Nc2ccccc21 (centres undefined) | – | > 100 | – | > 81.5 | – | > 100 | – | > 84.6 | – | > 72.6 | – | > 100 | – | > 80.5 | – | > 100
Oc1c(Br)cc(Cl)cc1C(c1cc(Cl)cc(Br)c1O)C(Cl)(Cl)Cl | 3.22 | 10.1 | 996 | 9.71 | 2.63 | 8.48 | 2720 | 8.61 | 2110 | 8.21 | 3.7 | 14.9 | 1640 | 3.83 | 1940 | 8.99
COc1cc2c(cc1C)NC(=O)/C2=C\c1ccc(Oc2ccccc2)cc1 | 14.2 | 28.3 | 8360 | 27.5 | 16.3 | 29.9 | 16700 | 32.6 | 12400 | 29.8 | 15.7 | 29.5 | 14500 | 27.9 | 11900 | 26
COc1ccc([C@@H]2[C@@H](Oc3ccccc3)C(=O)N2c2cc(OC)c(OC)c(OC)c2)cc1F | 0.0342 | > 100 | 204 | > 100 | 0.524 | > 100 | 990 | > 100 | 230 | > 100 | 0.26 | > 100 | 50.4 | 1.49 | 41.9 | > 100
COc1cc(/C=C/C(=O)c2nc3cc(F)ccc3nc2C)cc(OC)c1OC | 8.12 | > 100 | 1850 | > 21 | > 100 | > 100 | > 100000 | > 100 | 6050 | > 100 | 7.91 | > 60.3 | 5040 | > 100 | 5570 | > 100
COc1cc(NC(=O)COc2ccccc2)c(C(N)=O)cc1OC | 0.77 | > 100 | 562 | > 100 | 3.33 | 68.3 | 42800 | > 100 | 2230 | > 100 | 24.2 | > 100 | 766 | > 100 | 2520 | > 100
CCOC(=O)C#Cc1c(C(=O)OCC)nnn1[C@@H]1O[C@H](COC)[C@@H](OC)[C@H]1OC | 13.1 | 26 | 1870 | 4.93 | 18 | 32.8 | 1650 | 3.18 | 16700 | 31.7 | 3.49 | 12.8 | 14300 | 27.4 | 2190 | 5.41
